From article PMC4382154, “Screening of the Pan-African Natural Product Library Identifies Ixoratannin A-2 and Boldine as Novel HIV-1 Inhibitors” (PLoS ONE, 2015)
Structures can show the parent of a compound that is named as a salt. Where two headings read alike, the source gives them in different places.

What was measured:
[1] = Cell toxicity in HIV-1 infected CEM-GXR cultures (forward/side scatter); type: cell-based; conditions: human, HIV-1NL4-3-infected CEM-GXR cells (CD4+ T-lymphocyte line), Day 4
Method: (§1) CEM-GXR cells are an immortalized CD4+ T-lymphocyte line engineered that naturally express the HIV-1 coreceptor CXCR4 and have been further engineered to express the HIV-1 co-receptor CCR5 and a Tat-driven LTR-GFP expression cassette. As such, intracellular GFP expression indicates HIV-1 infection. Cultures of 10^5 CEM-GXR cells were seeded into 96-well plates with RPMI-1640 media (Sigma) supplemented with penicillin/streptomycin plus 20% fetal calf serum (R20+), infected with HIV-1 at a multiplicity of infection of 0.03 (to achieve 3% infected cells on Day 2), and incubated at 37°C and 5% CO2. 24 hours later, cells were pelleted at 750 g and resuspended in R20+ containing compound or 0.1% DMSO. […] Cells were then incubated at 37°C and 5% CO2 for an additional 72 h. 5,000 cells from each culture were measured for cell toxicity and GFP expression by flow cytometry. Flow cytometry data were analyzed using FlowJo v. 8.8.7 software (FlowJo LLC, Ashland, OR). […] Background GFP expression in uninfected cultures was set at 0.05% GFP-positive cells. For each experiment, all data points were obtained in triplicate. All data are reported as the mean ± s.e.m. from at least 3 independent experiments performed with different virus stocks and/or performed on different days. However, all experiments that compare HIV-1NL4-3 and mutant HIV-1 were performed in parallel. EC50 and CC50 values for each compound were calculated from at least four concentrations. Statistical analyses were performed using Student’s unpaired t test, with a p value < 0.05 plus a Bonferroni correction to adjust for multiple comparisons considered significant.
(§2) To assess the effects of these eight compounds on cell viability and HIV-1 replication, we infected a GFP-reporter CEM CD4+ T cell line (CEM-GXR) with the NL4-3 strain of HIV-1 (HIV-1NL4-3). Briefly, cells were infected with HIV-1NL4-3 at a multiplicity of infection of 0.03 (Day 0), followed by removal of HIV-1 and addition of compound (or 0.1% DMSO vehicle control) 24 hours later (Day 1) and incubation for an additional 72 hours to allow HIV-1 spread (Days 2–4). On Days 2 and/or 4, the percent HIV-1 infected (i.e., GFP-expressing) cells was measured by flow cytometry. Cell viability was assessed by measuring the percentage of cells displaying normal forward- and side-scatter parameters in drug-treated, HIV-1 infected cultures compared to 0.1% DMSO-treated, HIV-1 infected control cultures. […] HIV-1NL4-3 replication was unaffected by the presence of 0.1% DMSO vehicle control (Fig. 2B).

HIV-1NL4-3 [2] = assay: microbe, parasite or virus in culture; type: cell-based; conditions: for HIV-1 inhibition in the viral replication assay (in words): up to 100 μM; for EC50: read-out: HIV-1NL4-3 inhibition (EC50); for replication of HIV-1NL4-3 in CEM-GXR cells (in words): 0.1 μM
Method: as §1, §2

[3] = test system: Madin-Darby bovine kidney cells; set-up: method as in PMID 20832370; conditions: read-out: CC50 in bovine viral diarrhea virus-infected Madin-Darby bovine kidney cells; cited from earlier work
[4] = test system: monocyte derived macrophages; conditions: cited from earlier work
[5] = PBMC cytotoxicity (ViaCount Assay); type: cell-based; conditions: human, PHA-activated PBMCs; Day 5, ViaCount
Method: Cytotoxicity was determined by ViaCount Assay (Millipore). Briefly, Day 3 PHA-activated PBMCs (3*10^5) were cultured in R10+ supplemented with 100 units/mL human IL-2 in the presence of 0.1% DMSO or compounds at defined concentrations. At Day 5, 15 μL of each PBMC culture was mixed with Guava ViaCount Reagent at a 1:10 dilution. Data were collected using a Guava EasyCyte HT Flow Cytometer (Millipore).

SupT1 and CEM-SS cells = conditions: cited from earlier work
in vitro = type: cell-based; conditions: human
HIV-1NL4-3 [6] = assay: HIV-1 replication assay in PBMCs (p24Gag ELISA); type: cell-based; conditions: 10 μM, Day 12
Method: PBMCs from HIV-1 negative subjects, purchased commercially (StemCell Technologies, Vancouver, Canada), were maintained in RPMI-1640 media (Sigma) supplemented with penicillin/streptomycin plus 10% fetal calf serum (R10+). 72 h prior to viral infection, PBMCs were stimulated by addition of 5 μg/mL phytohaemaglutanin (PHA) (Day 0) and maintained in R10+ medium supplemented with 100 units/mL human IL-2. At Day 3 following cellular activation, 3x10^5 cells were infected with HIV-1NL4-3 at a multiplicity of infection of 0.003 (0.3% infected cells) and incubated at 37°C for 6h, followed by wash and re-suspension in fresh R10+ medium supplemented with 100 units/mL human IL-2 and with or without compounds at defined concentrations. Culture supernatants were collected and replaced with fresh medium supplemented with human IL-2 every 3 days (i.e., Days 6, 9, and 12) with or without fresh compounds. Viral replication at day 12 was monitored by measuring cell culture supernatant levels of p24^Gag by ELISA (XpressBio, Frederick, MD) following manufacturer’s instructions.

[7] = test system: HCV J4(1b)/JFH1(2a) chimera; assay: HCV replication assay in Huh-7.5 cells (NS5A flow cytometry); type: cell-based; conditions: Hepatitis C virus, Huh7.5, 72 h, read-out: inhibition of HCV replication
Method: The intergenotypic chimeric HCV used in this study—Bi-Gluc-J4(1b)/JFH1(2a) containing cell culture adaptive mutations in NS2 (T2996C) and NS3 (A4827T)—was previously described and subsequently modified to express Gaussia luciferase in the first cistron. HCV stocks used for infection were generated by electroporation of in vitro transcribed RNA into Huh-7.5.1 cells and pooling of supernatants harvested between 60–96 hr post-electroporation. HCV infectivity was determined by limiting dilution assay as previously described.
HCV cell culture was performed as described previously. Briefly, 4*10^4 Huh-7.5 cells were seeded into 24-well plates and incubated at 37°C and 5% CO2 overnight. Cells were then infected with HCV (multiplicity of infection = 0.3) for 6 hours, followed by removal of HCV and incubation with fresh medium containing compounds at stated concentrations. Cultures were then incubated for 72 hours, with no more than 0.1% DMSO present in culture medium. Cells were then trypsinized, resuspended in culture medium, and stained with the 9E10 alexa-fluor-conjugated antibody to NS5A [27]. Cells were fixed and analyzed for NS5A fluorescence by flow cytometry, and data were analyzed using FlowJo software. […] For each culture, NS5A fluorescence was determined as the percent gated cells relative to percent gated cells in infected cultures plus 0.1% DMSO. All experiments were performed in at least duplicate in at least two independent experiments.
We therefore assessed the effects of ixoratannin A-2, boldine, and BIT-225 on replication of HCV, which also encodes a viral ion channel and protease. Using an established cell culture system, Huh-7.5 cells were infected with an intergenotypic chimera between the J4 (genotype 1b) and JFH1 (genotype 2a) strain of HCV for 6 hours, followed by incubation with fresh medium containing compounds at defined concentrations. Infected cells were then incubated for an additional 72 hours. NS5A expression, a marker of HCV infection, was then detected by flow cytometry.

HIV-1RT = assay: microbe, parasite or virus in culture; type: cell-based; conditions: 0.1 μM, CEM-GXR cells, Day 4
Method: CEM-GXR cells are an immortalized CD4+ T-lymphocyte line engineered that naturally express the HIV-1 coreceptor CXCR4 and have been further engineered to express the HIV-1 co-receptor CCR5 and a Tat-driven LTR-GFP expression cassette. As such, intracellular GFP expression indicates HIV-1 infection [26]. Cultures of 10^5 CEM-GXR cells were seeded into 96-well plates with RPMI-1640 media (Sigma) supplemented with penicillin/streptomycin plus 20% fetal calf serum (R20+), infected with HIV-1 at a multiplicity of infection of 0.03 (to achieve 3% infected cells on Day 2), and incubated at 37°C and 5% CO2. 24 hours later, cells were pelleted at 750 g and resuspended in R20+ containing compound or 0.1% DMSO. […] Cells were then incubated at 37°C and 5% CO2 for an additional 72 h. 5,000 cells from each culture were measured for cell toxicity and GFP expression by flow cytometry. […] Background GFP expression in uninfected cultures was set at 0.05% GFP-positive cells. For each experiment, all data points were obtained in triplicate. All data are reported as the mean ± s.e.m. from at least 3 independent experiments performed with different virus stocks and/or performed on different days. […] EC50 and CC50 values for each compound were calculated from at least four concentrations. Statistical analyses were performed using Student’s unpaired t test, with a p value < 0.05 plus a Bonferroni correction to adjust for multiple comparisons considered significant.

HIV-1Δvpu = HIV-1Δvpu replication in CEM-GXR cells; type: cell-based; conditions: 0.1 μM, Day 4
Method: (§3) HIV-1Δvpu was constructed by digesting plasmid p210-13 3’ Δ-vpu with EcoRI and NheI enzymes. The resulting DNA fragment was then ligated into wild-type pNL4-3 plasmid digested with the same enzymes. HIV-1Δvpu and HIV-1NL4-3 viral stocks were prepared by transfection of HEK-293T cells, as previously described. Patient plasma-HIV-1 RNA sequences were analyzed for resistance mutations using the HIV Drug Resistance Database Genotype Resistance Interpretation Algorithm (hivdb.stanford.edu). Recombinant HIV-1NL4-3 expressing patient-derived HIV-1 sequences harboring resistance mutations to protease and reverse transcriptase inhibitors (HIV-1PR+RT), reverse transcriptase inhibitors (HIV-1RT), and integrase inhibitors (HIV-1INT) were generated by homologous recombination following co-transfection as reported.
as §1
(§4) To investigate the mechanisms by which ixoratannin A-2 and boldine may block HIV-1 replication, we used a previously-reported HIV-1NL4-3 strain lacking the Vpu coding region (HIV-1Δvpu). We also constructed recombinant HIV-1NL4-3 strains harboring protease, reverse transcriptase, and/or integrase sequences of HIV-1 strains from patients who had developed resistance to the protease inhibitor Indinavir (IND), the non-nucleoside reverse transcriptase inhibitor Efavirenz (EFV), and/or the integrase inhibitor Raltegravir (RAL) (denoted HIV-1PR+RT, HIV-1RT, and HIV-1INT, respectively). Re-sequencing of the recombinant viruses confirmed the presence of multiple mutations known to confer resistance to IND, EFV, and/or RAL (Table 2).

HIV-1PR+RT = HIV-1PR+RT replication in CEM-GXR cells; type: cell-based; conditions: 0.1 μM, CEM-GXR cells, Day 4
Method: as §3, §1, §4

CEM-GXR cells = assay: Cell toxicity in HIV-1 infected CEM-GXR cultures (forward/side scatter); type: cell-based; conditions: HIV-1NL4-3-infected CEM-GXR cells, Day 4
Method: as §1, §2

HIV-1INT = HIV-1INT replication in CEM-GXR cells; type: cell-based; conditions: 0.1 μM, CEM-GXR cells, Day 4
Method: as §3, §1, §4

[8] = Human immunodeficiency virus 1, 96 h, CEM-GXR cells, Day 4

| SMILES | CC50 at 72 h [1] [µM] | HIV-1 inhibition in the viral replication assay (in words) (HIV-1NL4-3 [2]; CEM-GXR cells) | EC50 (HIV-1NL4-3 [2]; [8]) [µM] | replication of HIV-1NL4-3 in CEM-GXR cells (in words) (HIV-1NL4-3 [2]; Day 4) | replication of HIV-1Δvpu in CEM-GXR cells (in words) (HIV-1Δvpu) | also measured |
| --- | --- | --- | --- | --- | --- | --- |
| CC(=O)c1c(O)cc(OC2OC(O)C(O)C(O)C2O)c(-c2c(C)cc(O)c3c2C(=O)c2cccc(O)c2C3=O)c1O (stereo not drawn) [2MA, 1-(3-acetyl-2,4-dihydroxy-6-((3,4,5,6-tetrahydroxytetrahydro-2H-pyran-2-yl)oxy)phenyl)-4,5-dihydroxy-2-methylanthracene-9,10-dione] | 50.9 | did not inhibit HIV-1 | > 100 |  |  |  |
| Cn1cc(-c2cccc3cc(C(=O)NC(=N)N)ccc23)cn1 [BIT-225, reference compound] | 10.7 |  |  |  |  | CC50 [3]: 11.6 µM; CC50 [4]: 167 to 284 µM; CC50 [5]: 12.8 µM; CC50 (SupT1 and CEM-SS cells): 32 to 67 µM; CC50 at 72 h (in vitro): 52.9 µM; reduced HIV-1 replication in PBMCs (p24Gag) (HIV-1NL4-3 [6]): 31.8%; inhibition at 30 µM [7]: 37.5% |
| O=c1oc2c(O)c(O)cc3c(=O)oc4c(O)c(O)cc1c4c23 [EA, ellagic acid] | 52.3 | did not observe these activities | > 100 |  |  |  |
| O=C(O[C@@H]1Cc2c(O)cc(O)cc2O[C@@H]1c1ccc(O)c(O)c1)c1cc(O)c(O)c(O)c1 [ECG, epicatechin gallate] | > 100 | did not observe antiviral activity | > 100 |  |  |  |
| O=C1Nc2ccc(Cl)cc2[C@@](C#CC2CC2)(C(F)(F)F)O1 [EFV, Efavirenz, reference compound] |  |  |  | inhibited | inhibited | HIV-1RT replication fold greater than HIV-1NL4-3 (HIV-1RT): 3.4 fold; HIV-1PR+RT replication fold higher than HIV-1NL4-3 (HIV-1PR+RT): 2.6 fold |
| CC(C)(C)NC(=O)[C@@H]1CN(Cc2cccnc2)CCN1C[C@@H](O)C[C@@H](Cc1ccccc1)C(=O)N[C@H]1c2ccccc2C[C@H]1O [IND, Indinavir, reference compound] |  |  |  | inhibited | inhibited | HIV-1PR+RT replication fold higher than HIV-1NL4-3 (HIV-1PR+RT): 2.7 fold |
| COc1cc2ccc3c(OC)c(O)ccc3c2c(OC)c1O [PA, 1,5,7-trimethoxyphenanthrene-2,6-diol] | < 30 |  |  |  |  | CC50 (CEM-GXR cells): 26.8 µM |
| Cc1nnc(C(=O)NC(C)(C)c2nc(C(=O)NCc3ccc(F)cc3)c(O)c(=O)n2C)o1 [RAL, Raltegravir, reference compound] |  |  |  | inhibited | inhibited | HIV-1INT replication fold higher than HIV-1NL4-3 (HIV-1INT): 1.7 fold |
| O=C1OCc2cc3cccc(OC4OC(CO)C(O)C(O)C4O)c3c(O)c21 (stereo not drawn) [geshoidin] | > 10 | did not inhibit HIV-1 |  |  |  | EC50 (HIV-1NL4-3 [2]; Human immunodeficiency virus 1, CEM-GXR, 96 h): > 100 µM |
| CC(N)C12CC3CC(CC(C3)C1)C2 (stereo not drawn) [rimantadine, rimantadine hydrochloride, reference compound] |  |  |  |  |  | inhibition at 50 µM [7]: 40.7% |
